1 molecule from US8097615B2, “Neurofibrillary labels” (Wista Laboratories Ltd., priority 2001, dated 2012) can be followed below.

One test deals with neurofibrillary tangles. The experiment in a line: Fluorescence labelling of tangles (sections, ifI tangle suspensions). It is filed as binding, human. As to the method: In ifI suspensions such as this, tangles can be seen by blue fluorescence which is […] from that associated with binding of contaminants in the preparation. […] (a) Chemical labelling with the biotinylated benzothiazole analogue shown as 4b in FIG. 4. PHFs were deposited on a carbon-coated grid after Pronase digestion, and incubated briefly with compound 4b, and then incubated with an anti-biotin antibody preparation that had been conjugated with colloidal gold. […] (b) mAb 423 immunolabelling of isolated PHFs after Pronase digestion., followed by incubation with a gold-conjugated goat anti-mouse second antibody as described in Novak et al. 1993 (Novak M, Kabat J, Wischik C M (1993) “Molecular characterisation of the minimal protease-resistant tau unit of the Alzheimers' disease paired helical filament”, EMBO J. 12: 365-370). As shown in this paper, mAb 423 labels PHFs derived from intracellular tangles (which preserve N-terminal tau immunoreactivity in the fuzzy outer coat) poorly, but Pronase digested PHFs strongly.
Serial 16 μm sections are cut from the hippocampus of a case dying with clinically and neuropathologically confirmed AD. […]
A Leitz fluorescence microscope fitted with a photo-multiplyer tube (Model MPV-2) was used to quantitate fluorescence emission. […]

Another test relates to tangle fragments. The experiment in a line: Competitive binding assay: displacement of primulin fluorescence from tangle fragments (ifI). More on the design: species or system human. The settings on record: for competition with / displacement of other ligands at tangles: fluorescence end point. The procedure:
IfI material was homogenised in a 0.2 ml glass homogeniser in PBS. To the suspension, test compounds were added to final concentrations ranging from 0.1% to 0.00001%. […] The suspensions were transferred to a glass slide, and examined by fluorescence microscopy across a range of fluorescence filter blocks, covering excitation and emission wavelengths between 380 nm and 570 nm. The end point sought in these observations was displacement of typical primulin fluorescence from tangle fragments.

Another test addresses T1, tau-tau binding (Homo sapiens, UniProt P10636).
T1 construct: a truncated tau protein corresponding to the core fragment and terminating at Ala390-dGA; dGAE which terminates at Glu-391; made in house; host or cells: E. coli BL21 (DE3), pRK172; DE52 flow-through, P11 phosphocellulose, PEG concentration, no heat step (Preparation 2)
The experiment in a line: Solid-phase tau-tau binding assay (dGA solid phase, dGAE liquid phase), tau Preparation 2. To be noted: Preparation 2. It counts as biochemical. As to the method: Preparation 2 differs from Preparation 1 above in the following respects: (1) The concentration of cells at the sonication stage is increased by 5-fold. (2) A batchwise adsorption of non-tau proteins to DE52 is included. (3) The proteins are not subjected to heat treatment. (4) The final step involves concentration using polyethylene glycol.
Escherichia coli is grown in 2×TY medium (Oxoid) supplemented with ampicillin (50 micrograms per ml) to late-logarithmic phase. Cells from 5 liters of culture are harvested by centrifugation and the cell pellets frozen rapidly over liquid nitrogen. The pellets are taken up with 50 mM PIPES (pH 6.8) containing 1 mM EDTA, 1 mM dithiothreitol and 1 mM phenylmethylsulphonylfluoride (PMSF) and bacteria lysed by sonication (2×3 min) at 4 C. The mixture is centrifuged at 10,000 rpm for 20 min. The supernatant is rotated with 1 gram of Whatman DE52 for 3 hr at 4 C. The mixture is separated on a column and the flow-through material that fails to bind to DE52 is incubated for 3 hr at 4 C, with rotation, with 0.4 g of Whatman P11 (freshly regenerated according to manufacturer's recommendations). The column is washed with column buffer (50 mM PIPES, pH 6.8 containing 1 mM EGTA, 5 mM EDTA, 0.2 mM MgCl2, 5 mM β-mercaptoethanol and 1 mM PMSF). Tau protein is eluted stepwise with a 0.1 to 1 M gradient of KCl in column buffer. Fractions containing tau (determined by immunoassay) are pooled and dialysed against 80 mM PIPES (pH6.8) containing 1 mM EGTA, 1 mM MgCl2 and 5 mM β-mercatoethanol, using dialysis tubing with a molecular weight cut-off of 1,000. The dialysate is concentrated by applying polyethylene glycol 8000 to the outside of the sac for 2-3 hr. The final concentration of tau ranged from 3 to 10 mg per ml.
When the proteins dGA and dGAE were prepared as indicated above (“Preparation 2”), the properties of the tau-tau binding assay were altered relative to the properties obtained using the preparative method described in WO96/30766 (“Preparation 1”).
The assay is performed using 96 well PVC plates (Falcon Cat. No. 353912 are used), and the following steps:
1. 50 μl dGA (˜10 μg/ml) in carbonate buffer, incubate 1 h at 37° C.
(Carbonate buffer: 50 mM carbonate bicarbonate, pH 9.6 (Na2CO3 1.59 g/l, NaHCO3 2.93 g/l))
2. Wash plate in 0.05% Tween-20.
3. 200 μl PBS+2% Marvel, incubate 1 h at 37° C.
4. Rinse plate 2× in deionised water, then wash in 0.05% Tween-20.
5. 50 μl dGAE (˜10 μg/ml) plus drug in PBS+1% fish skin gelatin+0.05% Tween-20, incubate 1 h at 37° C.
6. Wash plate in 0.05% Tween-20.
7. 50 μl antibody 423 (1:10 dilution in PBS+2% Marvel), incubate 1 h at 37° C.
8. Rinse plate 2× in deionised water, then wash in 0.05% Tween-20.
9. 50 μl HRP-anti-mouse (1:1000 dilution in PBS+0.05% Tween-20), incubate 1 h at 37° C.
10. Wash plate in 0.05% Tween-20, then rinse 1× with deionised water.
11. 50 μl substrate solution, read immediately initial rate over 2 min in plate reader at OD650.
(Substrate solution: 50 mM sodium acetate, pH 5.0+TMB (1 ml/100 ml of a 10 mg/ml solution in DMSO)+H2O2 (10 μl/100 ml)).

T1 sequence (P10636 614-708 limits assumed): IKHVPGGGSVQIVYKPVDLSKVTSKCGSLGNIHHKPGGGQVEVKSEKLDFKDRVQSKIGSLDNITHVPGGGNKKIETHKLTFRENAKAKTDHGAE

For the molecule `Cc1ccc2sc(-c3ccc4sc(-c5ccc(N)cc5)nc4c3)nc2c1S(=O)(=O)[O-].[Na+]` [primulin], the labelling of tangles result in the test with neurofibrillary tangles was “label tangles”. In the test on tangle fragments, the activity as ligand result is listed as “active ligands” and the “competition with / displacement of other ligands at tangles” value was “displace this from tangles”. In addition, the “competition with / displacement of other ligands at tangles” value with tangle fragments (listed as compound 1a) was “displace compound 1b at tangles”. Besides, the “inhibition of tau-tau binding” value at tau-tau binding was “no inhibitory activity”.
